Test results published in patent US9067888B2, “Inhibitors of protein kinases” (Ingenium Pharmaceuticals GmbH, priority 2010, dated 2015).

What was measured:
[1] = system: TNF-alpha inducible reporter gene; experiment: Inhibition of TNF-alpha-induced reporter gene expression (luciferase) in HeLa-derived cell line; type: cell-based, human; conditions: Homo sapiens, 6 h, remaining luciferase activity in presence of 3 μM of compound as ratio of DMSO-treated cells, TNF-alpha 50 ng/ml, read-out: Efficacy (ratio to DMSO) TNF-alpha induced response
Text: TNF-alpha responsive cell lines like the human HeLa cell line can be used to study cellular responses to TNF-alpha, e.g. transcriptional regulation of a transfected TNF-alpha responsive reporter gene, and effects of kinase inhibitors on this response.
In order to analyse compound effects on TNF-alpha mediated transcriptional response, a HeLa-derived cell line stably transfected with a TNF-alpha inducible reporter gene was used (Panomics Catalog No. RC0013). The cell line was obtained by co-transfection of a luciferase reporter gene (Panomics P/N LR0051) and pHyg into human cervical epithelial HeLa cells, followed by hygromycin selection. TNFα-induced luciferase activity was used to select clones from the hygromycin-resistant cells. The cell line was maintained and stimulated according to the manufacturer's instructions. Briefly, cells were seeded at 5×10^5/well in 1 ml of growth medium in a 12-well plate and incubated in a humidified incubator at 37° C. and 5% CO2 for 24 hours. Medium was replaced with 1 ml of serum free medium and compounds were added up to concentrations of […]. After 1 hour of incubation, TNF-alpha was added to achieve a final concentration of 50 ng/ml. The culture dish was further incubated in a humidified incubator at 37° C. and 5% CO2 for 6 hours, medium was removed and 100 μL of lysis buffer were added to each well and the assay for luciferase activity was performed according to assay manufacturer's (Promega P/N E1500) recommendations. For more information about this cell line, go to worldwide website www(dot)panomics.com.
Compound effects on TNF-alpha-induced reporter gene expression is shown in column 6 in Table 1 given below. Indicated is the remaining luciferase activity after incubation in presence of 3 μM of compound as a ratio of the activity of DMSO-treated cells without compound. Specifically, it was intended to distinguish cell permeable compounds from other compounds having significant inhibitory potency with regard to other CDKs, but fail to penetrate cells or are unstable under the conditions of the experiment.

CDK9 = CDK9 (Homo sapiens (Human), UniProt P50750); experiment: In vitro kinase inhibition, KinaseProfiler service of Millipore, residual activity; type: biochemical; conditions: for remaining activity at 0.01 µM: residual activity at 10 nM compound, read-out: CDK9 10 nM (RA in %); for remaining activity at 0.1 µM: residual activity at 100 nM compound, read-out: CDK9 100 nM (RA in %)
Text: In vitro kinase assay analysis may be performed using standard techniques described in the art. These techniques are also used by commercial services providers in order to offer in vitro kinase activity assay services, e.g. the assays offered by Millipore Inc. (worldwide website www(dot)millipore.com), ProQinase GmbH (worldwide website www(dot)proqinase.de) and others.
In vitro kinase inhibition results shown in columns 7 to 9 in Table 1 were obtained by employing the KinaseProfiler™ service of Millipore and used to select compounds displaying specificity for CDK9. Specifically, it was intended to distinguish the CDK9-specific compounds from other compounds having significant inhibitory potency also with regard to other CDKs.

Sequence of CDK9 (P50750 whole entry): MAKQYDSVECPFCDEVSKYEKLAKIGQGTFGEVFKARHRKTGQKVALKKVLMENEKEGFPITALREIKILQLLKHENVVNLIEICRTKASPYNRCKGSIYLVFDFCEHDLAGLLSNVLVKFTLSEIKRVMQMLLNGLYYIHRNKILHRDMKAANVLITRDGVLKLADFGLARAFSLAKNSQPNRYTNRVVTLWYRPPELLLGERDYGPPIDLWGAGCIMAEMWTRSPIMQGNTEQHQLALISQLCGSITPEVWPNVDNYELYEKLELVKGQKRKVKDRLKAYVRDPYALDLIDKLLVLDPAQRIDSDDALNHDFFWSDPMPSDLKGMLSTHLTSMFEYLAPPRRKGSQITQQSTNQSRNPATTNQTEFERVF
Sequence of CDK9 (O60563 whole entry partner): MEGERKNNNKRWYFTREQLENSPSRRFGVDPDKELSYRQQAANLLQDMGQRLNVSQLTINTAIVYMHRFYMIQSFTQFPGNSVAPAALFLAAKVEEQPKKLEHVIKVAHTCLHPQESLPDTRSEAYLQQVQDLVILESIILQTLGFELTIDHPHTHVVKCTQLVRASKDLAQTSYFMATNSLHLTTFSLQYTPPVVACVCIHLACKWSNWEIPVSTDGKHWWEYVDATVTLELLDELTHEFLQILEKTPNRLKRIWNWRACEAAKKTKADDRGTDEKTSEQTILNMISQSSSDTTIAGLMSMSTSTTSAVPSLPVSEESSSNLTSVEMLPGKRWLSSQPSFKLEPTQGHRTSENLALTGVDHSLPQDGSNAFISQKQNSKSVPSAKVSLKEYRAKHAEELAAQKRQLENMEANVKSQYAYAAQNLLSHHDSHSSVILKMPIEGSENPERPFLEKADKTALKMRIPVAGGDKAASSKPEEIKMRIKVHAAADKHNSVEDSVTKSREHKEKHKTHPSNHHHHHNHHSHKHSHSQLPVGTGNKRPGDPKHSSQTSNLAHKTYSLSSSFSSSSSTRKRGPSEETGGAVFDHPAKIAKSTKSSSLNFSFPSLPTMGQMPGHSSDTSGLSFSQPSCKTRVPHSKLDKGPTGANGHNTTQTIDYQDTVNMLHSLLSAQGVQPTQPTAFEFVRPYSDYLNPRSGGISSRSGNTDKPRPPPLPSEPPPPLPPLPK

| remaining activity at 0.01 µM (CDK9) | remaining activity at 0.1 µM (CDK9) | SMILES | activity at 3 µM [1] |
| --- | --- | --- | --- |
| 65% | 8% | COc1cc(F)ccc1-c1ccnc(NC(=O)C(C)c2ccc(N3CCN(C)CC3)cc2)c1 (stereo not drawn) [Example 27, N-(4-(4-Fluoro-2-methoxyphenyl)pyridin-2-yl)-2-(4-(4-methylpiperazin-1-yl)phenyl)propanamide] | 8% |
| 88% | 49% | COc1cc(F)ccc1-c1ccnc(NC(=O)C(C)Cc2ccc(N3CCN(C)CC3)cc2)c1 (stereo not drawn) [Example 28, 2-(4-(4-Methylpiperazin-1-yl)benzyl)-N-(4-(4-fluoro-2-methoxyphenyl)-pyridin-2-yl)propanamide] | 121% |
| 95% | 39% | COc1cc(F)ccc1-c1ccnc(NC(=O)CC(C)c2ccc(N3CCN(C)CC3)cc2)c1 (stereo not drawn) [Example 29, N-(4-(4-Fluoro-2-methoxyphenyl)pyridin-2-yl)-3-(4-(4-methylpiperazin-1-yl)phenyl)butanamide] | 105% |
| 29% | 4% | COc1cc(F)ccc1-c1ccnc(NC(=O)[C@H]2CC[C@@H](Nc3ccccn3)CC2)c1 [Example 30, N-(4-(4-Fluoro-2-methoxyphenyl)pyridin-2-yl)-4-(pyridin-2-ylamino)-cis-cyclohexanecarboxamide] | 3% |
| 58% | 8% | COc1cc(F)ccc1-c1ccnc(NC(=O)Cc2ccnc(N3CCN(C)CC3)c2)c1 [Example 31, N-(4-(4-Fluoro-2-methoxyphenyl)pyridin-2-yl)-2-(2-(4-methylpiperazin-1-yl)pyridin-4-yl)acetamide] | 4% |
| 34% | 4% | COc1cc(F)ccc1-c1ccnc(NC(=O)[C@H]2CC[C@@H](Nc3ccncc3)CC2)c1 [Example 32, cis-N-(4-(4-Fluoro-2-methoxyphenyl)pyridin-2-yl)-4-(pyridin-4-ylamino)-cyclohexanecarboxamide] | 4% |
| 50% | 8% | COc1cc(F)ccc1-c1ccnc(NC(=O)[C@@H]2CC[C@H](NC(C)=O)C2)c1 [Example 34, (1R,3S)-3-Acetamido-N-(4-(4-fluoro-2-methoxyphenyl)pyridin-2-yl)cyclopentanecarboxamide] | 7% |
| 36% | 4% | COc1cc(F)ccc1-c1ccnc(NC(=O)[C@H]2CC[C@@H](Nc3nccs3)CC2)c1 [Example 35, cis-N-(4-(4-Fluoro-2-methoxyphenyl)pyridin-2-yl)-4-(thiazol-2-ylamino)-cyclohexanecarboxamide] | 2% |
| 59% | 12% | COc1cc(F)ccc1-c1ccnc(NC(=O)[C@H]2CC[C@@H](Nc3ccccc3)CC2)c1 [Example 36, cis-N-(4-(4-Fluoro-2-methoxyphenyl)pyridin-2-yl)-4-(phenylamino)-cyclohexanecarboxamide] | 26% |
| 20% | 2% | COc1cc(F)ccc1-c1ccnc(NC(=O)[C@@H]2CC[C@H](NCc3ccccc3)C2)c1 [Example 37, (1R,3S)-3-(Benzylamino)-N-(4-(4-fluoro-2-methoxyphenyl)pyridin-2-yl)cyclopentanecarboxamide] | 2% |
| 65% | 4% | COc1cc(F)ccc1-c1ccnc(NC(=O)[C@H]2CC[C@@H](NCc3ccccc3)CC2)c1 [Example 38, cis-4-(Benzylamino)-N-(4-(4-fluoro-2-methoxyphenyl)pyridin-2-yl)cyclo-hexanecarboxamide] | 2% |
| 60% | 6% | COc1cc(F)ccc1-c1ccnc(NC(=O)[C@@H]2CC[C@H](Nc3ccccc3)C2)c1 [Example 39, (1R,3S)—N-(4-(4-Fluoro-2-methoxyphenyl)pyridin-2-yl)-3-(phenylamino)-cyclopentanecarboxamide] | 5% |
| 89% | 38% | COc1cc(F)ccc1-c1ccnc(NC(=O)[C@@H]2CCC[C@H](NC(C)=O)C2)c1 [Example 40, (1R,3S)-3-Acetamido-N-(4-(4-fluoro-2-methoxyphenyl)pyridin-2-yl)cyclohexanecarboxamide] | 46% |
| 38% | 8% | COc1cc(F)ccc1-c1ccnc(NC(=O)[C@H]2CC[C@@H](NC(C)=O)C2)c1 [Example 41, (1S,3R)-3-Acetamido-N-(4-(4-fluoro-2-methoxyphenyl)pyridin-2-yl)cyclopentanecarboxamide] | 3% |
